Laboratory results from patent US20020022722A1, “4'-C-ethynyl pyrimidine nucleoside compounds” (priority 1999, published 2002).
pEC50: −log10 of the molar value. Values after ≈ are worked out from the molar mass of the structure shown. Like-named read-outs stand apart in the source and are kept apart here.

Assays:
[1] = result in words; cited from earlier work
[2] = system: HIV-1 (IIIb strain); assay: Anti-HIV activity, MTT method using MT-4 cells; assay type: cell-based; conditions: Human immunodeficiency virus 1, IIIB; for pEC50: MT4, Table 4, read-out: HIV-1 (EC50)
Protocol: (2) Anti-human Immunodeficiency Virus (HIV) Activity
(§1) 1) MTT Method Using MT-4 Cells
(§2) 1. A test agent (100 μl) is diluted on a 96-well microplate. MT-4 cells infected with HIV-1 (IIIb strain; 100 TCID50) and non-infected MT-4 cells are added to the microplate such that the number of cells in each well becomes 10,000. The cells are cultured at 37° C. for five days.
(§3) 2. MTT (20 μl, 7.5 mg/ml) is added to each well, and the cells are further cultured for 2-3 hours.
(§4) 3. The cultured medium (120 μl) is sampled, and MTT terminating solution (isopropanol containing 4% Triton X-100 and 0.04N HCl) is added to the sample. The mixture is stirred to form formazane, which is dissolved. The absorbance at 540 nm of the solution is measured. Since the absorbance is proportional to the number of viable cells, the test agent concentration at which a half value of the absorbance is measured in a test using infected MT-4 cells represents EC50, whereas the test agent concentration at which a half value of the absorbance is measured in a test using non-infected MT-4 cells represents CC50.

[3] = Cytotoxicity, MTT method using non-infected MT-4 cells; assay type: cell-based; conditions: human
Protocol: as §1, §2, §3, §4

[4] = system: HIV wild strain: WT; assay: MAGI assay using HeLa CD4/LTR-beta-Gal cells, WT; assay type: cell-based
Protocol: (§5) 2) MAGI Assay Using HeLa CD4/LTR-beta-Gal Cells
(§6) 1. HeLa CD4/LTR-beta-Gal cells are added to 96 wells such that the number of cells in each well is 10,000. After 12-24 hours, the culture medium is removed, and a diluted test agent (100 μl) is added.
(§7) 2. A variety of HIV strains (wild strain: WT, drug-resistant strain: MDR, M184V, NL4-3, 104pre, and C; each equivalent to 50 TCID50) are added, and the cells are further cultured for 48 hours.
(§8) 3. The cells are fixed for five minutes using PBS containing 1% formaldehyde and 0.2% glutaraldehyde.
(§9) 4. After the fixed cells are washed with PBS three times, the cells are stained with 0.4 mg/ml X-Gal for one hour, and the number of blue-stained cells of each well is counted under a transmission stereoscopic microscope. The test agent concentration at which blue-stained cells decrease to 50% and 90% in number represents EC50 and EC90, respectively.

[5] = system: HIV drug-resistant strain: MDR; assay: MAGI assay using HeLa CD4/LTR-beta-Gal cells, MDR; assay type: cell-based; conditions: Human immunodeficiency virus 1, HeLa
Protocol: as §5, §6, §7, §8, §9

[6] = system: HIV drug-resistant strain: M184V; assay: MAGI assay using HeLa CD4/LTR-beta-Gal cells, M184V; assay type: cell-based; conditions: Human immunodeficiency virus 1, HeLa
Protocol: as §5, §6, §7, §8, §9

[7] = Cytotoxicity by use of HeLa CD4/LTR-beta-Gal cells; assay type: cell-based; conditions: human
Protocol: (§10) 5. In a manner similar to that employed in the MTT method, cytotoxicity is measured by use of HeLa CD4/LTR-beta-Gal cells.

[8] = system: HIV-1 IIIb strain; conditions: MT-4 cells, result in words; cited from earlier work
[9] = system: HIV strain NL4-3; assay: MAGI assay using HeLa CD4/LTR-beta-Gal cells, NL4-3; assay type: cell-based
Protocol: as §5, §6, §7, §8, §9

[10] = system: HIV strain 104pre; assay: MAGI assay using HeLa CD4/LTR-beta-Gal cells, 104pre; assay type: cell-based
Protocol: as §5, §6, §7, §8, §9

[11] = system: HIV strain C; assay: MAGI assay using HeLa CD4/LTR-beta-Gal cells, C; assay type: cell-based; conditions: Human immunodeficiency virus 1, HeLa; for EC90: read-out: HIV C (EC90, μM); for EC50: read-out: HIV C EC50, μM
Protocol: as §5, §6, §7, §8, §9

[12] = system: HeLa CD4/LTR-beta-Gal cells; assay: Cytotoxicity by use of HeLa CD4/LTR-beta-Gal cells; assay type: cell-based; conditions: Table 6
Protocol: as §10

[13] = system: multi-PI resistant HIV-1; conditions: result in words; cited from earlier work
[14] = MT4, Table 2, read-out: HIV-1 (EC50, μg/ml)
[15] = non-infected MT-4 cells, Table 2, read-out: Cytotoxicity (CC50, μg/ml)
[16] = Human immunodeficiency virus 1, HeLa, read-out: HIV WT (EC50, μg/ml), Table 5
[17] = read-out: HIV MDR (EC50, μg/ml), Table 5
[18] = read-out: HIV M184V (EC50, μg/ml), Table 5
[19] = Table 5, read-out: Cytotoxicity (CC50, μg/ml)
[20] = MT4, read-out: HIV-1 (EC50, μg/ml), Table 2
[21] = MT4, read-out: HIV-1 (EC50, μg/ml), Table 3
[22] = Human immunodeficiency virus 1, HeLa, read-out: HIV WT (EC50, μg/ml), Table 6
[23] = read-out: HIV MDR (EC50, μg/ml), Table 6
[24] = read-out: HIV M184V (EC50, μg/ml), Table 6
[25] = MT4, Table 3, read-out: HIV-1 (EC50, μg/ml)
[26] = non-infected MT-4 cells, Table 3, read-out: Cytotoxicity (CC50, μg/ml)
[27] = Table 6, read-out: Cytotoxicity (CC50, μg/ml)

C#C[C@]1(CO)O[C@@H](n2cc(C)c(=O)[nH]c2=O)[C@H](O)[C@@H]1O [1-(4-C-ethynyl-β-D-ribo-pentofuranosyl)thymine]
biological activities such as antiviral and antitumor activities [1]: no such biological activities have been observed

C#C[C@]1(CO)O[C@@H](n2cc(C)c(=O)[nH]c2=O)C[C@@H]1O [4′-C-ethynyl thymidine, 4′-C-ethynylthymidine, reference compound]
EC50 [2, 14]: 0.22 µg/mL | CC50 at 5 days [3, 15]: > 100 µg/mL | EC50 [4, 16]: 0.097 µg/mL (≈ 0.364 µM) | EC50 [5, 17]: 0.033 µg/mL (≈ 0.124 µM) | EC50 [6, 18]: 0.049 µg/mL (≈ 0.184 µM) | CC50 [7, 19]: > 100 µg/mL | anti-HIV activity compared with AZT [8]: weaker than that of AZT

C#C[C@]1(CO)O[C@@H](n2ccc(N)nc2=O)[C@H](O)[C@@H]1O [4′-C-ethynylcytidine]
biological activities such as antiviral and antitumor activities [1]: no such biological activities have been observed

C#C[C@]1(CO)O[C@@H](n2ccc(=O)[nH]c2=O)[C@H](O)[C@@H]1O [4′-C-ethynyluridine]
biological activities such as antiviral and antitumor activities [1]: no such biological activities have been observed

Cc1cn([C@H]2C[C@H](N=[N+]=[N-])[C@@H](CO)O2)c(=O)[nH]c1=O [AZT, zidovudine, reference compound]
pEC50 [2]: 7.26 | EC50 [2, 20]: 0.0016 µg/mL | EC50 [2, 21]: 0.0011 µg/mL | CC50 at 5 days ([3]; Table 2, read-out: Cytotoxicity (CC50, μg/ml)): > 0.27 µg/mL | CC50 at 5 days ([3]; Table 3, read-out: Cytotoxicity (CC50, μg/ml)): 9.08 µg/mL | EC50 [4, 16]: 0.0059 µg/mL (≈ 0.0221 µM) | EC50 [4, 22]: 0.0027 µg/mL (≈ 0.0101 µM) | EC50 [5, 17]: 4.1 µg/mL (≈ 15.3 µM) | EC50 [5, 23]: 5.34 µg/mL (≈ 20 µM) | EC50 [6, 18]: 0.0083 µg/mL (≈ 0.0311 µM) | EC50 [6, 24]: 0.0013 µg/mL (≈ 0.00486 µM) | EC90 ([9]; Human immunodeficiency virus 1, NL43, Table 7, value in parentheses, HeLa CD4/LTR-beta-Gal cells, read-out: HIV NL-43 (EC90)): 4.96 µM | pEC50 ([9]; Human immunodeficiency virus 1, NL43, Table 7, HeLa CD4/LTR-beta-Gal cells, read-out: HIV NL-43 EC50): 6.96 | EC90 ([10]; Human immunodeficiency virus 1, Table 7, value in parentheses, HeLa CD4/LTR-beta-Gal cells, read-out: HIV 104 pre (EC90)): 9.66 µM | pEC50 ([10]; Human immunodeficiency virus 1, Table 7, HeLa CD4/LTR-beta-Gal cells, read-out: HIV 104 pre EC50): 7.23 | EC90 [11]: > 10 µM | EC50 [11]: 3.27 µM | CC50 [7, 19]: > 26.7 µg/mL | Cytotoxicity (CC50, μg/ml) [12]: >26.7 µg/mL

C#C[C@]1(CO)O[C@@H](n2ccc(N)nc2=O)C[C@@H]1O [Compound 13, 4′-C-ethynyl-2′-deoxycytidine]
EC50 [2, 14]: 0.0012 µg/mL | EC50 ([4]; Human immunodeficiency virus 1, Table 5, read-out: HIV WT (EC50, μg/ml)): 0.00031 µg/mL (≈ 0.00123 µM) | EC50 [5, 17]: 0.0003 µg/mL (≈ 0.00119 µM) | EC50 [6, 18]: 0.00054 µg/mL (≈ 0.00215 µM)

C#C[C@]1(CO)O[C@@H](n2ccc(N)nc2=O)[C@@H](O)[C@@H]1O [Compound 19, 1-(4-C-ethynyl-β-D-arabino-pentofuranosyl)cytosine]
EC50 [2, 20]: 0.0115 µg/mL | CC50 at 5 days [3, 15]: 0.53 µg/mL | EC50 [4, 16]: 0.0019 µg/mL (≈ 0.00711 µM) | EC50 [5, 17]: 0.021 µg/mL (≈ 0.0786 µM) | EC50 [6, 18]: 0.19 µg/mL (≈ 0.711 µM) | CC50 [7, 19]: > 100 µg/mL

C#C[C@]1(CO)O[C@@H](n2cnc3c(N)ncnc32)CC1O (stereo partly drawn) [Compound 23, 9-(2-deoxy-4-C-ethynyl-β-D-ribo-pentofuranosyl)adenine]
EC50 [2, 25]: 0.0027 µg/mL | CC50 at 5 days [3, 26]: 4.4 µg/mL | EC50 [4, 22]: 0.0012 µg/mL (≈ 0.00436 µM) | EC50 [5, 23]: 0.0017 µg/mL (≈ 0.00618 µM) | EC50 [6, 24]: 0.013 µg/mL (≈ 0.0472 µM) | CC50 [7, 27]: > 100 µg/mL

C#C[C@]1(CO)O[C@@H](n2cnc3c(N)nc(N)nc32)CC1O (stereo partly drawn) [Compound 28, 9-(2-deoxy-4-C-ethynyl-β-D-ribo-pentofuranosyl)-2,6-diaminopurine]
EC50 [2, 21]: 0.0001 µg/mL | CC50 at 5 days [3, 26]: 0.26 µg/mL | EC50 [4, 22]: 0.00028 µg/mL (≈ 0.000965 µM) | EC50 [5, 23]: 0.00029 µg/mL (≈ 0.000999 µM) | EC50 [6, 24]: 0.0017 µg/mL (≈ 0.00586 µM) | CC50 [7, 27]: 2.7 µg/mL (≈ 9.3 µM)

C#C[C@]1(CO)O[C@@H](n2cnc3c(=O)[nH]cnc32)CC1O (stereo partly drawn) [Compound 29, 9-(2-deoxy-4-C-ethynyl-β-D-ribo-pentofuranosyl)hypoxanthine]
EC50 [2, 25]: 0.037 µg/mL | CC50 at 5 days [3, 26]: 38 µg/mL | EC50 [4, 22]: 0.22 µg/mL (≈ 0.796 µM) | EC50 [5, 23]: 0.14 µg/mL (≈ 0.507 µM) | EC50 [6, 24]: 4.6 µg/mL (≈ 16.7 µM) | CC50 [7, 27]: > 100 µg/mL

C#C[C@]1(CO)O[C@@H](n2cnc3c(=O)[nH]c(N)nc32)CC1O (stereo partly drawn) [Compound 30, 9-(2-deoxy4-C-ethynyl-β-D-ribo-pentofuranosyl)guanine]
EC50 [2, 21]: 0.00044 µg/mL | CC50 at 5 days [3, 26]: 0.41 µg/mL | EC50 [4, 22]: 0.002 µg/mL (≈ 0.00687 µM) | EC50 [5, 23]: 0.0014 µg/mL (≈ 0.00481 µM) | EC50 [6, 24]: 0.0023 µg/mL (≈ 0.0079 µM) | CC50 [7, 27]: 15.2 µg/mL (≈ 52.2 µM)

C#C[C@]1(CO)O[C@@H](n2cc(F)c(N)nc2=O)C[C@@H]1O [Compound 37, 4′-C-ethynyl-2′-deoxy-5-fluorocytidine]
pEC50 [2]: 7.48 | CC50 at 5 days ([3]; non-infected MT-4 cells, Table 4, read-out: Cytotoxicity (CC50)): > 500000 nM | EC90 ([9]; Human immunodeficiency virus 1, NL43, HeLa, read-out: HIV NL-43 (EC90, μM)): 0.25 µM | EC50 ([9]; Human immunodeficiency virus 1, NL43, HeLa, read-out: HIV NL-43 EC50, μM): 0.021 µM | EC90 ([10]; Human immunodeficiency virus 1, HeLa, read-out: HIV 104 pre (EC90, μM)): 0.19 µM | EC50 ([10]; Human immunodeficiency virus 1, HeLa, read-out: HIV 104 pre EC50, μM): 0.022 µM | EC90 [11]: 3.44 µM | EC50 [11]: 0.122 µM

Cc1ccccc1CNC(=O)[C@H]1N(C(=O)[C@@H](O)[C@H](Cc2ccccc2)NC(=O)c2cccc(O)c2C)CSC1(C)C [JE-2147]
antiviral activity against a multi-PI resistant HIV-1 [13]: potent antiviral activity
